Results reported in patent US9499550B2 (BRISTOL-MYERS SQUIBB COMPANY, priority 2012, dated 2016).
pEC50: −log10 of the molar value. Like-named read-outs stand apart in the source and are kept apart here.

How the values were obtained:
[1] = test system: HCV genotype 1a (H77 strain) replicon in HUH-7 cells; test: HCV replicon luciferase reporter assay, genotype 1a; assay type: cell-based; settings: Hepatitis C virus, Huh-7, 72 h, HCV genotype 1a replicon luciferase, 3 days incubation
Procedure, shortened: (§1)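 Replicon inhibition for both genotypes was measured as Renilla luciferase signal (EnduRen, 7.5 μM final, 2 h) after 3-day, 37° C exposure of replicon-bearing HUH-7 cells in 4% FCS DMEM, 0.5% DMSO. The 1b construct carries S1179I; the 1a H77 construct carries P1496L and S2204I. Twenty-point, 3-fold dilutions were fitted four-parametrically for EC50, and CC50 was taken from multiplexed Cell Titer-Blue.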

[2] = test system: HCV genotype 1b (Con1) replicon in HUH-7 cells; test: HCV replicon luciferase reporter assay, genotype 1b; assay type: cell-based; settings: Hepatitis C virus, Huh-7, 72 h, HCV genotype 1b replicon luciferase, 3 days incubation
Procedure, shortened: as §1

[3] = GETYPE1A, read-out: LE_1a (EC50, range)
[4] = GETYPE1B, read-out: LE_1b (EC50, range)

## CCOc1cnc(O[C@@H]2C[C@H]3C(=O)N[C@]4(C(=O)NS(=O)(=O)C5(CF)CC5)C[C@H]4/C=C\CC[C@@H](C)C[C@@H](C)[C@H](NC(=O)OC(C)(C)C(F)(F)F)C(=O)N3C2)c2ccccc12 [Compound 4149]
[1]; [3]
  pEC50: > 8.26
[2]; [4]
  pEC50: > 8.26

## COc1ccc2c(O[C@@H]3C[C@H]4C(=O)N[C@]5(C(=O)NS(=O)(=O)C6(CF)CC6)C[C@H]5/C=C\CC[C@@H](C)C[C@@H](C)[C@H](NC(=O)OC(C)(C)C(F)(F)F)C(=O)N4C3)nccc2c1 [Compound 4151]
[1]; [3]
  pEC50: > 8.26
[2]; [4]
  pEC50: > 8.26

## COc1cnc(O[C@@H]2C[C@H]3C(=O)N[C@]4(C(=O)NS(=O)(=O)C5(Cl)CC5)C[C@H]4/C=C\CC[C@@H](C)C[C@@H](C)[C@H](NC(=O)OC(C)(C)C(F)(F)F)C(=O)N3C2)c2ccccc12 [Compound 4153]
[1]; [3]
  pEC50: > 8.26
[2]; [4]
  pEC50: > 8.26

## COc1ccc2c(O[C@@H]3C[C@H]4C(=O)N[C@]5(C(=O)NS(=O)(=O)C6(CF)CC6)C[C@H]5/C=C\CC[C@@H](C)C[C@@H](C)[C@H](NC(=O)OC(C)(C)C(F)(F)F)C(=O)N4C3)ncc(OC)c2c1 [Compound 4154]
[1]; [3]
  pEC50: > 8.26
[2]; [4]
  pEC50: > 8.26

## COc1cnc(O[C@@H]2C[C@H]3C(=O)N[C@]4(C(=O)NS(=O)(=O)C5(CF)CC5)C[C@H]4/C=C\CC[C@@H](C)C[C@@H](C)[C@H](NC(=O)OC(C)(C)C(F)(F)F)C(=O)N3C2)c2ccccc12 [Compound 4155]
[1]; [3]
  pEC50: > 8.26
[2]; [4]
  pEC50: > 8.26

## COc1ccc2c(O[C@@H]3C[C@H]4C(=O)N[C@]5(C(=O)NS(=O)(=O)C6(CF)CC6)C[C@H]5/C=C\CC[C@@H](C)C[C@@H](C)[C@H](NC(=O)OC(C)(C)C)C(=O)N4C3)ncc(OC)c2c1 [Compound 4156, tert-butyl (2R,6S,7R,9R,13aS,14aR,16aS,Z)-2-(4,6-dimethoxyisoquinolin-1-yloxy)-14a-(1-(fluoromethyl)cyclopropylsulfonylcarbamoyl)-7,9-dimethyl-5,16-dioxo-1,2,3,5,6,7,8,9,10,11,13a,14,14a,15,16,16a-hexadecahydrocyclopropa[e]pyrrolo[1,2-a][1,4]diazacyclopentadecin-6-ylcarbamate]
[1]; read-out: LE_1a (EC50, range)
  pEC50: > 8.26
[2]; read-out: LE_1b (EC50, range)
  pEC50: > 8.26

## COc1cnc(O[C@@H]2C[C@H]3C(=O)N[C@]4(C(=O)NS(=O)(=O)C5(CF)CC5)C[C@H]4/C=C\CC[C@@H](C)C[C@@H](C)[C@H](NC(=O)OC(C)(C)C)C(=O)N3C2)c2ccccc12 [Compound 4157, tert-butyl (2R,6S,7R,9R,13aS,14aR,16aS,Z)-14a-(1-(fluoromethyl)cyclopropylsulfonylcarbamoyl)-2-(4-methoxyisoquinolin-1-yloxy)-7,9-dimethyl-5,16-dioxo-1,2,3,5,6,7,8,9,10,11,13a,14,14a,15,16,16a-hexadecahydrocyclopropa[e]pyrrolo[1,2-a][1,4]diazacyclopentadecin-6-ylcarbamate]
[1]; read-out: LE_1a (EC50, range)
  pEC50: > 8.26
[2]; read-out: LE_1b (EC50, range)
  pEC50: > 8.26

## C[C@@H]1CC/C=C\[C@@H]2C[C@@]2(C(=O)NS(=O)(=O)C2(C)CC2)NC(=O)[C@@H]2C[C@@H](Oc3ncc(OCC4CC4)c4ccccc34)CN2C(=O)[C@@H](NC(=O)OC(C)(C)C(F)(F)F)[C@H](C)C1 [Compound 4158]
[1]; [3]
  pEC50: > 8.26
[2]; [4]
  pEC50: > 8.26

## COc1cc2ccnc(O[C@@H]3C[C@H]4C(=O)N[C@]5(C(=O)NS(=O)(=O)C6(CF)CC6)C[C@H]5/C=C\CC[C@@H](C)C[C@@H](C)[C@H](NC(=O)OC(C)(C)C)C(=O)N4C3)c2cc1F [Compound 4159, tert-butyl (2R,6S,7R,9R,13aS,14aR,16aS,Z)-2-(7-fluoro-6-methoxyisoquinolin-1-yloxy)-14a-(1-(fluoromethyl)cyclopropylsulfonylcarbamoyl)-7,9-dimethyl-5,16-dioxo-1,2,3,5,6,7,8,9,10,11,13a,14,14a,15,16,16a-hexadecahydrocyclopropa[e]pyrrolo[1,2-a][1,4]diazacyclopentadecin-6-ylcarbamate]
[1]; read-out: LE_1a (EC50, range)
  pEC50: > 8.26
[2]; read-out: LE_1b (EC50, range)
  pEC50: > 8.26

## COc1cc2c(OC)cnc(O[C@@H]3C[C@H]4C(=O)N[C@]5(C(=O)NS(=O)(=O)C6(CF)CC6)C[C@H]5/C=C\CC[C@@H](C)C[C@@H](C)[C@H](NC(=O)OC(C)(C)C(F)(F)F)C(=O)N4C3)c2cc1F [Compound 4160]
[1]; [3]
  pEC50: > 8.26
[2]; [4]
  pEC50: > 8.26

## COc1cc2ccnc(O[C@@H]3C[C@H]4C(=O)N[C@]5(C(=O)NS(=O)(=O)C6(CF)CC6)C[C@H]5/C=C\CC[C@@H](C)C[C@@H](C)[C@H](NC(=O)OC(C)(C)C(F)(F)F)C(=O)N4C3)c2cc1F [Compound 4161]
[1]; [3]
  pEC50: > 8.26
[2]; [4]
  pEC50: > 8.26

## COc1ccc2ncc(O[C@@H]3C[C@H]4C(=O)N[C@]5(C(=O)NS(=O)(=O)C6(C)CC6)C[C@H]5/C=C\CC[C@@H](C)C[C@@H](C)[C@H](NC(=O)OC(C)(C)C(F)(F)F)C(=O)N4C3)nc2c1 [Compound 4162]
[1]; [3]
  pEC50: > 8.26
[2]; [4]
  pEC50: > 8.26

## COc1ccc2nc(O[C@@H]3C[C@H]4C(=O)N[C@]5(C(=O)NS(=O)(=O)C6(C)CC6)C[C@H]5/C=C\CC[C@@H](C)C[C@@H](C)[C@H](NC(=O)OC(C)(C)C(F)(F)F)C(=O)N4C3)cnc2c1 [Compound 4163]
[1]; GETYPE1A, read-out: LE_1a (EC50)
  pEC50: 8.01
[1]; [3]
  pEC50: 6.99 to 8.32
[2]; GETYPE1B, read-out: LE_1b (EC50)
  pEC50: 8.72
[2]; [4]
  pEC50: > 8.26

## COc1cc2c(OC)cnc(O[C@@H]3C[C@H]4C(=O)N[C@]5(C(=O)NS(=O)(=O)C6(C)CC6)C[C@H]5/C=C\CC[C@@H](C)C[C@@H](C)[C@H](NC(=O)OC(C)(C)C(F)(F)F)C(=O)N4C3)c2cc1F [Compound 4164]
[1]; [3]
  pEC50: > 8.26
[2]; [4]
  pEC50: > 8.26

## COc1cc2ccnc(O[C@@H]3C[C@H]4C(=O)N[C@]5(C(=O)NS(=O)(=O)C6(CF)CC6)C[C@H]5/C=C\CC[C@@H](C)C[C@@H](C)[C@H](NC(=O)C(C)(C)C)C(=O)N4C3)c2cc1F [Compound 4165, (2R,6S,7R,9R,13aS,14aR,16aS,Z)-2-(7-fluoro-6-methoxyisoquinolin-1-yloxy)-N-(1-(fluoromethyl)cyclopropylsulfonyl)-7,9-dimethyl-5,16-dioxo-6-pivalamido-1,2,3,5,6,7,8,9,10,11,13a,14,14a,15,16,16a-hexadecahydrocyclopropa[e]pyrrolo[1,2-a][1,4]diazacyclopentadecine-14a-carboxamide]
[1]; read-out: LE_1a (EC50, range)
  pEC50: > 8.26
[2]; read-out: LE_1b (EC50, range)
  pEC50: > 8.26

## C[C@@H]1CC/C=C\[C@@H]2C[C@@]2(C(=O)NS(=O)(=O)C2CC2)NC(=O)[C@@H]2C[C@@H](Oc3ncc(OCC4CC4)c4ccc(F)cc34)CN2C(=O)[C@@H](NC(=O)OC(C)(C)C)[C@H](C)C1 [Compound 4166, tert-butyl (2R,6S,7R,9R,13aS,14aR,16aS,Z)-2-(4-(cyclopropylmethoxy)-7-fluoroisoquinolin-1-yloxy)-14a-(cyclopropylsulfonylcarbamoyl)-7,9-dimethyl-5,16-dioxo-1,2,3,5,6,7,8,9,10,11,13a,14,14a,15,16,16a-hexadecahydrocyclopropa[e]pyrrolo[1,2-a][1,4]diazacyclopentadecin-6-ylcarbamate]
[1]; read-out: LE_1a (EC50, range)
  pEC50: > 8.26
[2]; read-out: LE_1b (EC50, range)
  pEC50: > 8.26

## COc1ccc2c(O[C@@H]3C[C@H]4C(=O)N[C@]5(C(=O)NS(=O)(=O)C6(CF)CC6)C[C@H]5/C=C\CC[C@@H](C)C[C@@H](C)[C@H](NC(=O)OC(C)(C)C)C(=O)N4C3)nc(-c3ccc(OC(C)C)cc3)cc2c1 [Compound 4167, tert-butyl (2R,6S,7R,9R,13aS,14aR,16aS,Z)-14a-(1-(fluoromethyl)cyclopropylsulfonylcarbamoyl)-2-(3-(4-isopropoxyphenyl)-6-methoxyisoquinolin-1-yloxy)-7,9-dimethyl-5,16-dioxo-1,2,3,5,6,7,8,9,10,11,13a,14,14a,15,16,16a-hexadecahydrocyclopropa[e]pyrrolo[1,2-a][1,4]diazacyclopentadecin-6-ylcarbamate]
[1]; read-out: LE_1a (EC50, range)
  pEC50: > 8.26
[2]; read-out: LE_1b (EC50, range)
  pEC50: > 8.26

## COc1cc2ccnc(O[C@@H]3C[C@H]4C(=O)N[C@]5(C(=O)NS(=O)(=O)C6CC6)C[C@H]5/C=C\CC[C@@H](C)C[C@@H](C)[C@H](NC(=O)OC(C)(C)C(F)(F)F)C(=O)N4C3)c2cc1F [Compound 4169]
[1]; [3]
  pEC50: > 8.26
[2]; [4]
  pEC50: > 8.26

## COc1ccc2ncc(O[C@@H]3C[C@H]4C(=O)N[C@]5(C(=O)NS(=O)(=O)C6(CF)CC6)C[C@H]5/C=C\CC[C@@H](C)C[C@@H](C)[C@H](NCC(F)F)C(=O)N4C3)nc2c1 [Compound 4170]
[1]; read-out: LE_1a (EC50, range)
  pEC50: < 7.06
[2]; read-out: LE_1b (EC50, range)
  pEC50: 6.99 to 8.32

## COc1ccc2c(O[C@@H]3C[C@H]4C(=O)N[C@]5(C(=O)NS(=O)(=O)C6(CF)CC6)C[C@H]5/C=C\CC[C@@H](C)C[C@@H](C)[C@H](NC(=O)c5ccncc5F)C(=O)N4C3)ncc(OC)c2c1 [Compound 4171, (2R,6S,7R,9R,13aS,14aR,16aS,Z)-2-(4,6-dimethoxyisoquinolin-1-yloxy)-6-(3-fluoroisonicotinamido)-N-(1-(fluoromethyl)cyclopropylsulfonyl)-7,9-dimethyl-5,16-dioxo-1,2,3,5,6,7,8,9,10,11,13a,14,14a,15,16,16a-hexadecahydrocyclopropa[e]pyrrolo[1,2-a][1,4]diazacyclopentadecine-14a-carboxamide]
[1]; read-out: LE_1a (EC50, range)
  pEC50: > 8.26
[2]; read-out: LE_1b (EC50, range)
  pEC50: > 8.26

## COc1ccc2c(O[C@@H]3C[C@H]4C(=O)N[C@]5(C(=O)NS(=O)(=O)C6(C)CC6)C[C@H]5/C=C\CC[C@@H](C)C[C@@H](C)[C@H](NC(=O)OC(C)(C)C(F)(F)F)C(=O)N4C3)cc(-c3ccc(OC(C)C)cc3)nc2c1 [Compound 4172]
[1]; [3]
  pEC50: > 8.26
[2]; [4]
  pEC50: > 8.26
